This is an account of results in patent US20260138969A1 (Korea Research Institute of Chemical Technology, priority 2023, published 2026).

For one series, the system named is PC12 cells. Description: Neuronal protective efficacy against 6-OHDA (MTT). It counts as cell-based. To be noted: Rattus norvegicus, PC-12, 6-OHDA 40 μM, Control = 100, read-out: cell viability (AVE); for viability at 0.1 µM: compound 0.1 μM; for viability at 0.3 µM: compound 0.3 μM; for viability at 1 µM: compound 1 μM. The procedure:
The neuronal toxicity substances 6-OHDA (6-hydroxydopamine hydrobromide) and MPP+ (1-methyl-4-phenylpyridinium) were purchased from Sigma-Aldrich (Saint Louis, MO, USA) and made into 100 mM DMSO stock. PC12 cells were seeded on 96-well plates with 4 pieces of 1×10 per well and incubated for one day. The cells were pretreated with each concentration of embodied compound for 1 h. Subsequently, 40 μM 6-OHDA and 2 mM MPP^+ were added and incubated for 24 hours, respectively. Subsequently, cell viability was measured using MTT (Invitrogen, MA, USA).

The subject of another series is MDR1. Description: MDR-MDCK cell membrane permeability assessment. It counts as in vitro ADME. The conditions noted are these: dog; MDCK-MDR1 monolayer. On the procedure: (§1) MDCK-MDR1 cells (5×10^5 cells/mL) were incubated on a 24-transwell plate (Corning, NY, USA) for 4 days to measure permeability through a single layer of MDR-MDCK cells. The medium was replaced with a new medium every two days, and the electrical resistance between epithelial tissues (TEER) was measured using a Millicell® ERS-2 Volohmmeter (Merck KGaA, Darmstadt, Germany), and the cell membrane permeability test was performed after confirming that this value was greater than or equal to 300 Ohm.cm^2.
(§2) The apical and basolateral chambers were washed twice each in the order of Hanks' Balanced Salt Solution (HBSS) containing DPBS buffer and 10 mM Hydroxyethyl piperazine Ethane sulfonic acid (HEPES), and in the final washing step, HBSS was filled and maintained at a stable state at 37° C. for 30 minutes. After 30 minutes, the test material was instilled in each chamber and left at 37° C. for 2 hours, and the culture medium of the transferred layer was collected at 30-minute intervals, and the collected amount was supplemented with new HBSS.
(§3) The apparent permeability coefficient (Papp, cm/sec) was calculated using the following formula:
(§4) [formula] • Papp: Apparent permeability • dQ/dt: Permeability of the drug • A: Area of the filter membrane on which the cells are laid • C_0: Initial concentration of the drug
(§5) In addition, the Efflux ratio was calculated as follows: […]

Series [1] can be described thus: MDR-MDCK cell membrane permeability assessment. The class given is in vitro ADME. The conditions noted are these: dog; MDCK-MDR1 monolayer, 37° C., 2 hours. The procedure:
as §1, §2, §3, §4, §5

The test system of series [2] is MPTP-induced PD mouse model. Description: MPTP-induced PD mouse model: dopamine by LC-MS/MS. The class given is in vivo. To be noted: vs MPTP alone group. The procedure: (§6) Mice at 7 weeks of age were divided into 7 groups as shown in Table 9 below to generate an acute MPTP model and proceed with drug administration: control group+vehicle (G1), MPTP+vehicle (G2), MPTP+Nilotinib 40 mg/kg (G3), MPTP+Example 3 2 mg/kg (G4), MPTP+Example 3 10 mg/kg (G5), MPTP+Example 3 50 mg/kg (G6), and MPTP+Example 2 50 mg/kg (G7). The test drug was administered orally (PO) at 10 ml/kg once daily (QD) from Day 1 to Day 7. The acute MPTP model will be performed at 2-hour intervals in all groups except the control group. […] was administered as intraperitoneal (IP) injection for 4 doses. The control group was given the same amount of 0.9% saline. The Pole test was performed on day 4 (after training on day 2 and day 3). On day 7, all mice were euthanized, and their brains were harvested.
The amount of dopamine was measured by LC-MS/MS analysis using Agilent 1290 (LC) and SCIEX QTARP 6500+ (QQQ) for the striatum and substantia nigra of the extracted brain tissue.

Series [3] deals with MPTP-induced PD mouse model. Description: MPTP-induced PD mouse model: TH staining of striatum and substantia nigra. The class given is in vivo. The conditions noted are these: for TH levels in the substantia nigra / TH levels in the striatum: vs control group (G1); for TH levels in substantia nigra / TH levels in striatum: PO QD Day 1-7, Example 3 2/10/50 mg/kg, Example 2 50 mg/kg, vs MPTP group G2; for TH levels in striatum: Nilotinib 40 mg/kg. The procedure: as §6
Mice were euthanized with Zoletil administration for collection of tissue samples for staining and analysis of histological sections. Blood was collected from the heart of the mouse and then the residual blood was perfused with phosphate-buffered saline (PBS). For half of the mice (n=6/group), the brain was incised into the striatum, substantia nigra, and the rest of the brain, flash-frozen, and stored at −80° C. The remaining mice (n=6/group) had their brains isolated and immobilized in 4% paraformaldehyde for 24 hours at 4° C., followed by 30% sucrose in phosphate-buffered saline (PBS) containing 0.02% sodium azide and stored at 4° C. for 3 days. Immunohistochemical sections were performed on brain samples embedded with optimal cutting temperature (OCT) compounds. Samples were sectioned to a thickness of 20 μm using Leica CM1950 (Leica Microsystems, Germany) and stored at 4° C. in a preservation solution until staining with antibodies.
After staining the striatum and substantia nigra of the brain and mounting them on microscopic slides, the slides were washed with PBS containing 0.3% Triton X-100 and peroxidase block for 15 min at room temperature. The slides were washed three times with PBS containing 0.3% Triton X-100 and then blocked at RT (room temperature) for 1 hour in a solution containing PBS, 5% normal goat serum, and 0.3% Triton X-100. Tyrosine hydroxylase antibody was diluted at 1:1000 and incubated overnight at 4° C. The slides were washed with PBS solution and incubated for 1 h at RT with secondary antibody. The slides were washed with PBS solution and the sections were placed in the solution to proceed with the DAB (diaminobenzidine) reaction.
The DAB response was monitored under a microscope for 2 to 3 minutes, and the slides were washed with PBS to stop the DAB response, dehydrated, and mounted using xylene. An Olympus microscope (Olympus, SZ61, BX51) was used to visualize TH stained images. The optical density (OD) value of positive TH staining was measured in the striatum and substantia nigra and analyzed using Image J software.

Series [4] can be described thus: Distribution in the mouse brain (plasma and brain AUC). The class given is in vivo. The procedure:
The blood-brain barrier permeability in ICR mice was confirmed by oral administration of 10 mg/kg of test material. Male […] mice were fasted for 15 h prior to administration. The test material was administered at a dose of 10 mg/kg and a volume of 5 mL/kg, and the solvent composition was N-Methyl-2-pyrrolidone (NMP), Polyethylene glycol 400 (PEG 400), and distilled water (D.W) at a volume ratio of 10:40:50(%), respectively. After administration, blood and brain tissue samples were taken by sacrificing mice with carbon dioxide inhalation at each time point corresponding to 1, 4, and 8 hours. Whole blood was collected from the abdominal vena cava, and brain samples were collected after systemic perfusion with saline to remove as much blood as possible.
The distribution ratio in mouse plasma and brain was calculated by calculating the AUC after concentration quantification in each tissue.

The mark [5] stands for this setting: oral 10 mg/kg, samples at 1, 4, 8 hours.

As a reminder, the viability is a per cent measure of how many cells are alive, often set against a control. One may read the efflux ratio as a quotient of directional permeabilities that is used to spot active efflux. As usually defined, the Papp A→B is the apparent permeability from the apical to the basolateral side of a cell layer. Broadly, the Papp B→A is how fast a substance crosses the layer from the basolateral side. On to `Cc1cc(F)c(C(=O)Nc2cccc(-n3nnc4c3CCC4)n2)cc1-n1cnc(C2CC2)c1` [Example 2, 5-(4-cyclopropyl-1H-imidazole-1-yl)-N-(6-(5,6-dihydrocyclopenta[d][1,2,3]triazole-1 (4H)-yl)pyridine-2-yl)-2-fluoro-4-methylbenzamide], for which, in the series with PC12 cells, the viability at 0.1 µM turned out to be 88.8%, the viability at 0.3 µM was 91.5% and the viability at 1 µM was determined as 96.8%. Besides, in the series with MDR1, the efflux ratio at 2 h worked out at 1.06. Moreover, in series [1], the apparent permeability from apical to basolateral (Papp A→B) at 2 h worked out at 93.2 ± 11.2 ×10⁻⁶ cm/s and the Papp B→A at 2 h worked out at 99.1 ± 16.8 ×10⁻⁶ cm/s. In addition, in series [2] (50 mg/kg PO QD), the “dopamine concentration in the striatum” value is listed as “significantly increased” and the “dopamine concentration in the substantia nigra” value is recorded as “significantly increased”. Besides, the “TH levels in the substantia nigra” value in series [3] (50 mg/kg PO QD) is listed as “significantly higher than in the control group (G1)”. Further, in series [3], the “TH levels in substantia nigra” value is on record as “significant increase” and the “TH levels in striatum” value is “significant increase”.
The term Kp denotes tissue or fluid exposure divided by exposure in the circulation. Take `Cc1cc(F)c(C(=O)Nc2cccc(-n3nnc4c3CCCC4)n2)cc1-n1cnc(C2CC2)c1` [Example 3, 5-(4-cyclopropyl-1H-imidazole-1-yl)-2-fluoro-4-methyl-N-(6-(4,5,6,7-tetrahydro-1H-benzo[d][1,2,3]triazole-1-yl)pyridine-2-yl)benzamide]: the concentration ratio (Kp) in series [4] (male, brain/plasma, po, 10 mg/kg) was determined as 0.021. Further, in series [4] (setting [5]), the Aukinf brain turned out to be 6.61 ± 1.75 ug*h · g and the Aukinf plasma turned out to be 320 ± 74.8 µg·mL·h. In addition, in the series on PC12 cells, the viability at 0.1 µM is 90%, the viability at 0.3 µM was 92% and the viability at 1 µM was 92.8%. Besides, in the series with MDR1, the efflux ratio at 2 h turned out to be 1.13. In series [1], the Papp A→B at 2 h was determined as 67.3 ± 12.8 ×10⁻⁶ cm/s and the Papp B→A at 2 h amounted to 74.8 ± 12.3 ×10⁻⁶ cm/s. Also, the “dopamine concentration in the substantia nigra” value in series [2] (2 mg/kg PO QD) is listed as “significantly increased”. Also, the “dopamine concentration in the substantia nigra” value in series [2] (10 mg/kg PO QD) is on record as “significantly increased”. Also, in series [3] (10 mg/kg PO QD), the “TH levels in the striatum” value is given as “significantly higher than in the control group (G1)” and the “TH levels in the substantia nigra” value was “significantly higher than in the control group (G1)”. Moreover, in series [3] (50 mg/kg PO QD), the “TH levels in the striatum” value was “significantly higher than in the control group (G1)” and the “TH levels in the substantia nigra” value is given as “significantly higher than in the control group (G1)”. For the same compound, in series [3], the “TH levels in substantia nigra” value is “significant increase” and the “TH levels in striatum” value is “significant increase”.
